Measurements published in ChEMBL document CHEMBL2346579, “Structure-based approaches to ligands for G-protein-coupled adenosine and P2Y receptors, from small molecules to nanoconjugates” (J Med Chem, 2013).
Each block holds one molecule with its values, some of them ahead of it.

How the values were obtained:
[1] = target: Adenosine receptor A2a (Homo sapiens) (UniProt P29274); test: Negative allosteric modulation of A2A adenosine receptor (unknown origin)
[2] = target: Adenosine receptor A2a (Homo sapiens) (UniProt P29274); test: Antagonist activity at A2A adenosine receptor (unknown origin)
[3] = target: Adenosine receptor A2a (Homo sapiens) (UniProt P29274); test: Binding affinity to A2A adenosine receptor (unknown origin)
[4] = target: Adenosine receptor A2a (Homo sapiens) (UniProt P29274); test: Positive allosteric modulation of A2A adenosine receptor (unknown origin)

Chain of Adenosine receptor A2a (Homo sapiens) (P29274 whole entry): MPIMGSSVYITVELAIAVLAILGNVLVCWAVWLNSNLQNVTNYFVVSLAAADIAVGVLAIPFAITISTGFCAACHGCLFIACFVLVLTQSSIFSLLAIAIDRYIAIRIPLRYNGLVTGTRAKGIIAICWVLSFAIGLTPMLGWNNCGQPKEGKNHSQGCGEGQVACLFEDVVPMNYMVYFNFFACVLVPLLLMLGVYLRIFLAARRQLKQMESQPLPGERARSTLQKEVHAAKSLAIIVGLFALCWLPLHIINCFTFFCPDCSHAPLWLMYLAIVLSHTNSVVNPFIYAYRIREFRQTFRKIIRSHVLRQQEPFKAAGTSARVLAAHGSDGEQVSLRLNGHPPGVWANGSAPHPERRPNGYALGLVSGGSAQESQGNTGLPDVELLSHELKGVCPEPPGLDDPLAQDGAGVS

SMILES: O=C(O)CCN1CCCc2ccccc21
Activity [4]: 2 mM

SMILES: Cc1cc(C)nc(NC(=N)NCCc2c[nH]c3ccc(F)cc23)n1
Activity [2]: 200 nM

Now from value to molecule:

Activity [1]: 2 mM
SMILES: Oc1cccc(Nc2ccccc2)c1

Activity [2]: 30 nM
SMILES: Nc1nnc(-c2cc(C(F)(F)F)nc(C(F)(F)F)c2)c(-c2ccccc2)n1

Activity [3]: 70 nM
SMILES: Nc1nc(-c2ccc(F)cc2)ns1
